# Data reported in patent US8394854B2, “Use of L-carnitine for the treatment of cardiovascular diseases” (Sigma-Tau Industrie Farmaceutiche Riunite S.p.A., priority 2004, dated 2013).
# Experiments:
# [1] = test system: patients with signs of infarction; settings: 40 mg/kg/day (2.8 g/day), cited from earlier work
# infarction patients [2] = settings: two deaths also in the placebo group; cited from earlier work
# [3] = test system: experimental cardiac ischaemia model; settings: dogs; cited from earlier work
# infarction patients [4] = settings: L-carnitine administered within 24 hours of the infarction; 14 in the control group; cited from earlier work
# [5] = test system: patients presenting infarction symptoms; settings: 2 g/day; 6 in the control group; cited from earlier work
# [6] = test system: patients with acute myocardial infarction; test: Multicentre randomized, double-blind, placebo-controlled, parallel-group clinical trial of L-carnitine; assay type: in vivo, human; settings: for RR (Relative Risk) of death at 1 mo. / RR (Relative Risk) of death at 2 mos. / RR (Relative Risk) of death at 6 mos. / RR (Relative Risk) of death at 12 mos. / RR (Relative Risk) of death at 3 days / RR (Relative Risk) of death at 5 days / RR (Relative Risk) of death at 7 days: vs placebo
# Procedure: A clinical trial was conducted aimed at evaluating the effect of the administration of L-carnitine on short-, medium- and long-term incidence and mortality in patients with acute myocardial infarction. The trial design was that of a multicentre randomized, double-blind, placebo-controlled, parallel-group trial.
# A total of 2,296 patients of male and female sex were recruited, aged below 80 years, subdivided into groups. The study compound, L-carnitine, was administered at a dose of 9 g/day i.v. for the first 5 days and 4 g/day by mouth from day 6 to day 180.
# In particular, in one group of patients the L-carnitine was administered intravenously dissolved in sterile saline solution, while in another group of patients it was administered dissolved in normal 5% glucose solution used in hospital departments.
# The control group received the standard therapy used for the treatment of infarct, without L-carnitine.
# Concomitant therapies were administered according to the procedures adopted in local clinical practice.
# The efficacy parameters evaluated were reduction of mortality, reduction of the number of days spent in intensive care, and reduction of the number of episodes of post-infarction heart failure.
# • Typical chest pain lasting >30 minutes which is not relieved by oral or i.v. administration of nitrates; • ECG with ST-segment elevation 0.2 mV in D, and in lead aVL and/or in at least two contiguous precordial leads; • Time interval elapsing between onset of symptoms and study randomisation <12 hours; • Age <80 years; • Written informed consent. Exclusion Criteria • Pregnancy or breast-feeding; • Haemodynamically significant valvulopathy; • Hypertrophic or dilatory cardiomyopathy; • Congenital cardiopathy; • Clinically severe liver and kidney disease; • Alcohol abuse; • Other diseases associated with a poor life expectancy; • Conditions making poor compliance with treatment and/or periodic examinations likely; • Inclusion in another trial.
# [7] = test system: patients with acute myocardial infarction; settings: 3 grams every 8 hours (9 grams a day) intravenously for 48 hours; control saline solution; cited from earlier work
# [8] = all patients, L-carnitine in saline or glucose solution
# [9] = group treated with L-carnitine dissolved in glucose solution
# [10] = L-carnitine dissolved in glucose solution
# [11] = all patients, saline or glucose solution
smiles,measurement,setting,value
C[N+](C)(C)C[C@H](O)CC(=O)[O-] [L-carnitine],difference between patients treated within 4 hours of onset of symptoms of infarction and patients treated 4 hours after onset,[1],no statistically significant difference
same,number of deaths in the treated group,[1]; one in the control group,none
same,deaths in the group treated with L-carnitine,infarction patients [2],two
same,enhancing cardiac lipid metabolism,[3],active
same,patients in the treated group who died over the entire hospitalisation period,infarction patients [4],11
same,number of deaths at 28 days after the start of treatment,[5],4
same,NUMBER OF DEATHS AT: 1 mo.,[6]; [8],45
same,NUMBER OF DEATHS AT: 1 mo.,[6]; [9],22
same,RR (Relative Risk) of death at 1 mo.,[6]; [10],0.79
same,RR (Relative Risk) of death at 1 mo.,[6]; [11],0.78
same,NUMBER OF DEATHS AT: 2 mos.,[6]; [8],53
same,NUMBER OF DEATHS AT: 2 mos.,[6]; [9],26
same,RR (Relative Risk) of death at 2 mos.,[6]; [10],0.80
same,RR (Relative Risk) of death at 2 mos.,[6]; [11],0.81
same,NUMBER OF DEATHS AT: 6 mos.,[6]; [8],64
same,NUMBER OF DEATHS AT: 6 mos.,[6]; [9],32
same,RR (Relative Risk) of death at 6 mos.,[6]; [10],0.87
same,RR (Relative Risk) of death at 6 mos.,[6]; [11],0.86
same,NUMBER OF DEATHS AT: 12 mos.,[6]; [8],67
same,NUMBER OF DEATHS AT: 12 mos.,[6]; [9],33
same,RR (Relative Risk) of death at 12 mos.,[6]; [10],0.88
same,RR (Relative Risk) of death at 12 mos.,[6]; [11],0.89
same,NUMBER OF DEATHS AT: 3 days,"[6]; all patients, L-carnitine in saline or glucose solution, 9 g/day i.v. 5 days then 4 g/day oral",23
same,NUMBER OF DEATHS AT: 3 days,[6]; [9],11
same,RR (Relative Risk) of death at 3 days,[6]; [10],0.67
same,RR (Relative Risk) of death at 3 days,[6]; [11],0.68
same,NUMBER OF DEATHS AT: 5 days,[6]; [8],27
same,NUMBER OF DEATHS AT: 5 days,[6]; [9],13
same,RR (Relative Risk) of death at 5 days,[6]; [10],0.64
same,RR (Relative Risk) of death at 5 days,[6]; [11],0.63
same,NUMBER OF DEATHS AT: 7 days,[6]; [8],31
same,NUMBER OF DEATHS AT: 7 days,[6]; [9],15
same,RR (Relative Risk) of death at 7 days,[6]; [10],0.70
same,RR (Relative Risk) of death at 7 days,[6]; [11],0.69
same,"mortality at 7 days after the start of treatment, control group vs treated group",[7],no significant difference
